Earlier results as cited in patent publication US20070155664A1, “Parathyroid hormone (pth) containing pharmaceutical compositions for oral use” (Nycomed Danmark A/S, priority 2003, published 2007).

Key:
[1] = tested on: pre-menopausal women; conditions: 1200 mg calcium supplements daily, three menstrual cycles; placebo 48%
[2] = tested on: postmenopausal women; conditions: calcium supplementation

Q: Which “oral administered dose absorbed” value (oral) does the source give for `[Ca+2]` [calcium] here?
A: Its value is 20-33%.

Q: What about the absorption efficiency (young adult, on average) of the same compound?
A: Its absorption efficiency is “about 30%”.

Q: And the “women with PMS related symptoms” value [1]?
A: Its value is 30%.

Q: And the “reduced bone loss, on average” value [2]?
A: Its value is “about 1 % year”.
